# Reference: patent US11266743B2, “Peptide compositions and methods of use thereof” (priority 2017, dated 2022)
# “Also recorded” adds a separate entry of the source.
# What was measured:
# [1] = tested on: Hela cells stably transfected with mCherry and GFP1-10; assay: Split GFP assay (GFP-11 delivery); type: cell-based; settings: 40 μM peptide-GFP-11, 22° C.
# [2] = tested on: HeLa, RAW264.7, HepG2, and MCF-7 cells; assay: TAMRA delivery assay (flow cytometry, confocal microscopy); type: cell-based; settings: 0.5 μM CPP-TA + 4.5 μM CPP-C, 30 minutes at 4° C., 22° C., or 37° C.
# Description: To determine the effect of the PNA cargo on delivery, we labeled CPPs, lacking the PNA705 cargo, with the fluorophore TAMRA on a C-terminal cysteine residue (CPP-TA) and measured delivery to multiple cell types. TAMRA-labelled CPPs, mixed with unlabeled CPPs at a 1:10 ratio in serum-free DMEM for a final concentration of 5 μM total peptide, was added to HeLa, RAW264.7, HepG2, and MCF-7 cells in 12-well cell culture plates and incubated for 30 minutes at 4° C., 22° C., or 37° C. prior to flow cytometric analysis (FIGS. 9-16). […] Delivery of TAMRA was verified by confocal microscopy for each cell type.
# Hela, RAW264.7, HCT116, HepG2, and MCF-7 cells were plated in 12-well plates at 100,000 cells/well. After 24 hours, cells were gently washed in PBS, topped with 500 μl of CPP-TA solution containing 0.5 μM CPP-TA+4.5 uM CPP-C in sfDMEM without phenol red, and incubated for 30 min at either 4° C., 23° C., or 37° C. The incubation solution was aspirated and cells were treated with 100 μl 0.025% Trypsin for 3 minutes at 23° C. 500 μl DMEM containing 2% FBS, 125 nM Sytox Green, and 20 mM HEPES was used to suspend the cells. Cells were transferred to a filter-topped flow cytometry tube and analyzed on a BD™ LSR II flow cytometer. Cells displaying a normal morphology were gated and first analyzed for GFP fluorescence using the 488 nM laser. GFP negative cells were used to generate a histogram of TAMRA fluorescence, measured with the 543 nM laser.
# Cells were treated as described above for the TAMRA delivery assay and immediately imaged to avoid artifacts resulting from fixation. The distribution of TAMRA and Sytox Green was analyzed using a confocal scanning Nikon Eclipse Ti2 inverted microscope using a 40× oil-immersion objective. Sytox Green was excited using the 488 nM laser and TAMRA was excited using the 543 nM laser.
# [3] = tested on: Hela cells stably transfected with mCherry and GFP1-10; assay: Split GFP assay (GFP-11 delivery); type: cell-based; settings: 40 μM peptide-GFP-11, 37° C.
# Description: To test the ability of CPPs to deliver other cargoes, specifically a protease-sensitive peptide cargo, we modified the well-known split-GFP assay. CPPs were tested for the ability to deliver the polar 16-residue GFP-11 peptide across the membrane barrier. This peptide rescues the fluorescence of the cytosolic endogenous, non-fluorescent GFP1-10 protein. Here, we stably transfected Hela cells with a plasmid containing the full length mCherry and the non-fluorescent GFP1-10. Following incubation with CPP-GFP-11 constructs at multiple concentrations and temperatures for 30 minutes in serum free DMEM, cells were analyzed by flow cytometry for mCherry and GFP fluorescence (FIG. 17). Live cells expressing mCherry (˜50% of the total cells) were gated and their GFP fluorescence was analyzed. Unlike the luciferase splice correction assay where a single corrected mRNA transcript serves as template for many molecules of functional luciferase, the split GFP assay is stoichiometric; a single GFP-11 peptide can bind to a single GFP1-10 protein producing a finite fluorescent response.
# Hela cells were transfected with p_mCherry-GFP1-10 (Addgene plasmid #78591) using LIPOFECTAMINE® 3000 (ThermoFisher). Single mCherry positive cells were sorted into 96-well plates using a BD™ FACSARIA™ cell sorter and colonies were maintained under G418 selection at […]. Stably transfected cells were plated in 12-well plates at 100,000 cells/well and grown overnight in complete DMEM. Cells were washed in PBS and incubated in 500 μl of CPP-GFP-11 solution at variable concentrations at 23° C. and 37° C. for 30 minutes. The CPP-GFP-11 solution was aspirated and 100 μl of 0.025% trypsin solution was added to each well. After detachment, cells were suspended in 500 μL of PBS+2% FBS and 20 mM HEPES. Cells were analyzed using a BD™ LSRII flow cytometer. Cells displaying a normal morphology were gated and first analyzed for mCherry fluorescence using the 543 nM laser. mCherry+ cells were used to generate a histogram of GFP fluorescence measured with the 488 nM laser.
# P. aeruginosa [4] = assay: Induced resistance, ten serial passages of broth sterilization assays; type: cell-based; settings: ⅔ serially diluted antibiotics, overnight growth
# Description: Bacterial resistance against peptide antibiotics is known to occur, although it is reportedly more difficult to induce than resistance against conventional antibiotics. P. aeruginosa can gain resistance to some AMPs through selection for a variant with altered outer membrane composition. We used P. aeruginosa in a screen (FIG. 36) to select against rapid resistance. We tested if P. aeruginosa can stably gain resistance to the rationally designed peptides described herein and we compared their ability to adapt to conventional antibiotics under the same conditions. For ten serial passages, we performed broth sterilization assays using ⅔ serially diluted antibiotics with overnight growth. For each passage, we used the bacteria that grew at the highest antibiotic concentration to expand overnight for the subsequent generation. […] All of the conventional antibiotics promoted increasing resistance, and two promoted complete resistance by 10 passages.
# [5] = Safety study of aspirated D-NOGCON; type: in vivo, C57BL/6 mice; settings: aspiration
# Description: (§1) The mice were then treated with D-NOGCON (SEQ ID NO:37), which were instilled in the trachea, exactly as described above for the administration of bacterial infection. Before attempting to treat a P. aeruginosa infection of the lung, we sought to establish a safe dose for administration of the D-NOGCON peptide via aspiration. Based on in vitro toxicity data (FIGS. 28D and 28E), a dosing regimen of 50 μL of D-NOGCON (100 μM) was administered every 8 hours for 3 days (9 doses). As a no treatment control, we administered 50 μL of PBS on the same schedule.
# To monitor the toxicity we measured animal behavior and body weight changes (FIG. 29A). […] In the second safety trial, we administered 50 μL of D-NOGCON (50 μM) twice daily, for three days and monitored the animals behavior and body weight changes (FIG. 29B).
# P. aeruginosa [6] = assay: Deep wound infection with luminescent P. aeruginosa, whole animal imaging; type: in vivo, mice
# Description: Deep wounds in mice were infected with a luminescent strain of P. aeruginosa and monitored with whole animal imaging (FIGS. 35-37). In FIG. 36 infections are just beginning to become established. Areas of red indicate maximal bacterial colonization. No treatments have occurred. Treatment was twice per day, with 50 μg of D-NOGCON peptide in 20 μL of vehicle (0.025% acetic acid) starting 2 hours after infection. […] In the control animals (FIG. 36A), the infection is fully established across the entire wound bed and saturated the detector (red color). In the treated animals (FIG. 36B) the infection is much smaller in area and much lower in intensity, indicating it is under control.
# P. aeruginosa PA01 = assay: Acute pneumonia induced by P. aeruginosa aspiration; type: in vivo, C57BL/6 mice
# Description: Female C57BL/6 mice, aged five weeks, were obtained from Charles River Laboratories. Upon receipt, they were allowed at least one week to recover from transport and acclimate to the new housing environment. Mice were maintained on a standard chow diet. Experiments were performed with mice no younger than six weeks and no older than nine weeks. P. aeruginosa PA01 was cultured overnight in tryptic soy broth (TSB) at 37° C. and shaken at 220 RPM. Prior to infecting the mice, the overnight culture was diluted 100-fold into 25-mL of fresh TSB. The culture was grown for three hours before optical density was determined. Previous growth curve experiments allowed us to dilute this newly expanded culture to 1.4×10^8 CFU/mL. To infect an animal, mice were anesthetized using isoflurane and 50 μL of bacterial suspension (7×10^6 CFUs) was administered via intratracheal instillation. Briefly, the anesthetized mice were suspended from wire by their front feet and blunt forceps were used to extract the tongue. The tongue was pulled out and downward. The bacterial suspension was deposited in the back of the throat with a micropipette. The nares of the animal were then covered while the mouse recovered from anesthesia. The chest was gently rubbed to promote inhalation. The mice were made to inhale 15 times before the tongue was released and the mouse was removed from the wire. The animals were then allowed a minute to fully awaken and then returned to their cages.
# as §1
# Our initial experiment was survival-based. We infected 8 mice (4 for treatment, 4 for vehicle) with the above bacterial load in 50 μL of PBS and allowed 2 hours of recovery prior to the initial treatment administration. After the recovery period, dosing proceeded as it had for the second safety study (50 μL, 50 μM, 2× daily). […] At the 24-hour time point, mice from both groups lost ˜12% body weight (FIG. 30A). Between 24 and 48-hour timepoints, 3 controls and 1 treated animal were sacrificed (FIG. 30B). […] Euthanasia is required in these cases because the animals are clearly suffering and are not able to obtain the nutrients required for survival. […] The lungs of 3 animals from each treatment group were removed, homogenized, and plated on PIA plates to determine the P. aeruginosa CFU burden (FIG. 30C).
# A third study reduced the CFU burden of P. aeruginosa to 7×10^6 and mice were treated as with the previous experiment. As in the previous experiment, both treated and untreated animals lost 10-12% of their body weight after 24 hours (FIG. 31A). […] What was not taken into consideration in this experiment was the propensity for infection to spread to other tissues.
# S. aureus = assay: Radial diffusion in the presence of RBCs; type: cell-based; design: key: The ↑ represents the improvement in performance that would be desired for a viable in vivo antimicrobial peptide; ↓: The symbol represents a regression in desired behavior; *=p<0.05; **=p<0.01; ***=p<0.001; settings: change versus parent sequence; paired t-test
# Description: Underlay agarose was prepared by adding 5 g of low EEO agarose and 0.03 g of TSB to 500 mL of 10 mM phosphate buffer (pH=7.4). Overlay agarose was prepared by adding 5 g of low EEO agarose and 30 g of TSB to 500 mL of 10 mM phosphate buffer (pH=7.4). Both solutions were heated until the agarose melted and then were autoclaved. To a rectangular, one-well plate, 20 mL of underlay agarose, inoculated with 8×10^6 CFUs of bacteria, was added. A sterile, 96-well plate replicator from Sigma-Aldrich was set in the molten agarose and removed one the agarose solidified. Antibiotic was prepared at 4 times the final desired concentration. For the antibiotic standard, a serial dilution of 3:4 across a 96-well plate was performed followed by 1:4 dilution with PBS. Otherwise, the peptide was diluted to 20 μM with RBCs and/or serum to give between 2% (1×10^8 cells/mL) and 20% (1×10^9 cells/mL). Solutions were incubated with gentle shaking for 30 minutes at 37° C. […]. Overlay was added, and the plate was incubated upside down overnight. Surface growth was cleared, the plates were sterilized with 25% methanol and 5% acetic acid. Zones of inhibition were photographed and analyzed using ImageJ. (FIG. 21)
# The engineered peptide sequences and their derivation from parent sequences is shown, along with the underlying hypothesis described for the first set of peptides (Table 4) and the second set (Table 5). We performed statistical testing for performance in antimicrobial assays in the presence and absence of RBCs, as well as for cytotoxicity. The broth dilution results were tested using a two sample t-test (N=6-22). The radial diffusion results were tested using a paired t-test (N=4). The cytotoxicity results were tested using a paired t-test (N=3). The ↑ represents the improvement in performance that would be desired for a viable in vivo antimicrobial peptide. This corresponds to a decrease in MIC values (increased potency) and decreased cytotoxicity. The symbol represents a regression in desired behavior. (*=p<0.05, **=p<0.01, ***=p<0.001).
# P. aeruginosa biofilms = assay: Activity against P. aeruginosa biofilms; type: cell-based; settings: 25 μM
# Description: Bacterial biofilm formation on implanted medical devices is a serious medical problem because these biofilms can lead to life-threatening systemic infections. We tested selected peptides and rationally designed variants against biofilms formed by P. aeruginosa. […] D-NOGCON reduces viable bacteria by 3.6 logs ( 1/3000 reduction) at 25 μM, while the best conventional antibiotic, Ciprofloxacin, reduced viable bacteria by only 1.7 logs ( 1/55 reduction) at 25 μM.
sequence,measurement,setting,value
"GRKKRRQRRRPPQ [TAT, reference compound]",mCherry positive cells GFP-11 is delivered to,[1],7%
same,"TAMRA delivery (words, rank order)",[2],CPP-2»CPP-3=CPP-1>CPP-4>TAT=penetratin
same,mCherry positive cells GFP-11 is delivered to,[3],21%
RRWARLRLVLAY [ARVA],induction of resistance,P. aeruginosa [4],promoted total resistance in a few passages
RRWARRLAFAFRR [D-NOGCON],tolerability (behavior and body weight changes),[5]; 50 μL of 50 μM twice daily for three days,sufficiently safe
same,tolerability (behavior and body weight changes),[5]; 50 μL of 100 μM every 8 hours for 3 days,too toxic for the animals to tolerate
same,wound infection (luminescence imaging),"P. aeruginosa [6]; after a single day of treatment, 50 μg in 20 μL twice per day starting 2 hours after infection",dramatically reduced compared to the control
same,integrated luminescence,"P. aeruginosa [6]; first 5 days, treated on days 0, 1, and 2","significant protection, slowing of bacterial growth and more rapid clearance over control"
same,summed activity and behavior scores,"P. aeruginosa [6]; scale 0 (normal) to 3 each for five items, maximum 15",more normal behavior; also recorded: better summed behavioral scores
same,body weight lost,"P. aeruginosa PA01; survival study, 24-hour time point, same in vehicle group",~12%
same,survival of the initial 24 hours,"P. aeruginosa PA01; survival study, 50 μL, 50 μM, 2× daily, first dose 2 hours after infection",All mice from both treatment groups survived
same,animals sacrificed,"P. aeruginosa PA01; survival study, between 24 and 48-hour timepoints, 4 mice per group, 3 controls sacrificed",1
same,body weight lost,"P. aeruginosa PA01; survival study, day 3, all animals of both groups",more than 20%
same,infection titer,"P. aeruginosa PA01; survival trial, 50 μL, 50 μM, 2× daily",little improvement in the infection titer
same,infection titer over control,"P. aeruginosa PA01; third experiment, lower CFU burden",little improvement
same,body weight lost,"P. aeruginosa PA01; third study, after 24 hours, same in untreated animals",10-12%
same,CFU burden versus untreated,"P. aeruginosa PA01; third study, two doses over 24 hours",non-significant increase
same,Radial Diffusion vs. S. aureus,S. aureus,↑Radial diffusion vs.
same,reduction of viable bacteria in biofilm,P. aeruginosa biofilms,3.6 logs
